What all share (test): MIC, agar-dilution, standard in-vitro test
Common to all, as to type: cell-based

The test system of test [1] is Staphylococcus aureus MRQR (methicillin resistant quinolone resistant). Conditions: 10^4 CFU/spot, 37° C., 24 hours. The procedure: (§1) The following results were obtained on a standard in-vitro test system. The activity is described in terms of the minimum inhibitory concentration (MIC) determined by the agar-dilution technique with an inoculum size of 10^4 CFU/spot.
(§2) Staphylococci were tested on agar, using an inoculum of 10^4 CFU/spot and an incubation temperature of 37° C. for 24 hours—standard test conditions for the expression of methicillin resistance.

In test [2] the test system is Coagulase Negative Staphylococcus MS (methicillin sensitive). The conditions noted are these: 10^4 CFU/spot, 37° C., 24 hours. The method, then: as §1, §2
Test [3] deals with Staphylococcus aureus Oxford. The conditions noted are these: 10^4 CFU/spot, 37° C., 24 hours. The procedure: as §1, §2
Test [4] deals with Coagulase Negative Staphylococcus MR (methicillin resistant). Conditions: 10^4 CFU/spot, 37° C., 24 hours. The method, then:
as §1, §2

Test [5] has as its system Staphylococcus aureus Novb. Res (Novobiocin resistant). The conditions noted are these: 10^4 CFU/spot, 37° C., 24 hours. The procedure:
as §1, §2

For test [6], the system named is Staphylococcus aureus MRQS (methicillin resistant quinolone sensitive). The conditions noted are these: 10^4 CFU/spot, 37° C., 24 hours. The method, then:
as §1, §2

The test system of the next test is Enterococcus faecalis. Conditions: agar with 5% defibrinated horse blood, 10^4 CFU/spot, 37° C., 5% carbon dioxide, 48 hours. The procedure:
as §1
(§3) Streptococci and enterococci were tested on agar supplemented with 5% defibrinated horse blood, an inoculum of 10^4 CFU/spot and an incubation temperature of 37° C. in an atmosphere of 5% carbon dioxide for 48 hours—blood is required for the growth of some of the test organisms.

For test [7], the system named is Streptococcus pyogenes C203. Conditions: agar with 5% defibrinated horse blood, 10^4 CFU/spot, 37° C., 5% carbon dioxide, 48 hours. The method, then: as §1, §3
The subject of the next test is Bacillus subtilis. The conditions noted are these: 10^4 CFU/spot.
Description: as §1

Values after ≈ are worked out from the molar mass of the structure shown.

In general, MIC refers to the least concentration at which growth counts as inhibited. Read a high MIC as a need for much substance. Turning to `CC(=O)NC[C@H]1CN(c2ccc(C3=CCN(C(=O)OC(C)(C)C)CC3)cc2)C(=O)O1` [Example 1, N-((5S)-3-(4-(1-tert-butoxycarbonyl-1,2,5,6-tetrahydropyrid-4-yl)phenyl)-2-oxoxazolidin-5yl-methyl)acetamide], the MIC in test [1] turned out to be 0.5 µg/mL (≈ 1.2 µM); in test [2], 0.25 µg/mL (≈ 0.602 µM); in test [3], 1.0 µg/mL (≈ 2.41 µM); in test [4] it was 1.0 µg/mL (≈ 2.41 µM); in test [5], 0.5 µg/mL (≈ 1.2 µM); in test [6] it was 0.5 µg/mL (≈ 1.2 µM). Moreover, the results for the MIC (against Enterococcus faecalis; in test [7]; in the test with Bacillus subtilis) were 1.0 µg/mL (≈ 2.41 µM), 1.0 µg/mL (≈ 2.41 µM) and 0.25 µg/mL (≈ 0.602 µM), respectively.
